# In US4699898A, “Tripeptides affecting immune response” (Imreg, Inc., priority 1985, dated 1987):
# Residues, ends and D or L forms follow the SMILES beside them.
# System: dermal reaction to tetanus toxoid antigen
# Settings: in vivo
smiles,measurement,value
"N[C@@H](Cc1ccc(O)cc1)C(=O)NCC(=O)NCC(=O)O [TGG, Tyr-Gly-Gly] (H-Tyr-Gly-Gly-OH)",Dermal reaction without antigen,No reaction was observed
